Values quoted from earlier work, collected in patent publication US20140328795A1, “VIRUCIDAL SMALL MOLECULE AND USES THEREOF” (The Texas A&M University System, priority 2012, published 2014).

Tested on: HIV
Details: VOICE trial among African women; cited from earlier work

For `C[C@H](Cn1cnc2c(N)ncnc21)OCP(=O)(O)O` [tenofovir], the “protection against HIV” value is listed as “failed to provide protection against HIV”.
